Paper PMC11661381, “Covalent-fragment screening identifies selective inhibitors of multiple Staphylococcus aureus serine hydrolases important for growth and biofilm formation” (Research Square, 2024)

Key:
Escherichia coli = assay: Bacterial growth inhibition assay, E. coli; format: cell-based
Pseudomonas aeruginosa = assay: Bacterial growth inhibition assay, P. aeruginosa; format: cell-based
Experimental: Bacteria were streaked from glycerol stocks onto agar plates and grown overnight at 37°C. A single colony was inoculated in either Tryptic Soy Broth (TSB; Sigma-Aldrich, St. Louis, MO; used for most species) or Bacto Brain Heart Infusion (BHI; Becton, Dickinson, and Company, Franklin Lakes, NJ; used for L. monocytogenes and S. pyogenes) and grown at 37°C shaking until mid-exponential phase (OD600 = 0.5), then diluted 1:10 in cation-adjusted Mueller Hinton Broth (MHB2, Millipore Sigma, Bedford, MA; used for most species) or BHI (for L. monocytogenes and S. pyogenes). 15 μl of this dilution was added to 135 μl of MHB2 or BHI in a flat-bottom clear 96-well plate for a starting inoculum of ~ 5 × 10^5 CFU/ml.
For bacterial growth inhibition assay, wild-type S. aureus and transposon mutants (fphB::Tn, fphE::Tn and fphH::Tn) were grown with compounds at final concentrations ranging from 1–100 μM and compared to growth in media with an equivalent percentage of DMSO. […] All growth curves were repeated at least twice and analyzed in GraphPad Prism 10.0 software. […] The cultures were incubated overnight at 37°C, 5% CO2 before their optical density was read. The EC50 of the antibiotics against the bacteria in the presence or absence of N34 were determined by fitting the normalized data into a four-parameter logistic model in GraphPad Prism 10.0 software.

rFphE = target: T1, rFphE (Staphylococcus aureus, UniProt Q2FDS6); assay: FP-Cy5 active site labeling competition of recombinant protein, rFphE; format: binding
T1 construct: otherwise full-length FphE (Uniprot ID Q2FDS6) and FphH (A0A0H2XJL0) proteins; His6 (3C-cleavable, pETNKI-his-3C-LIC vector) (N); made in house; E. coli is inferred from the pET28a-type vector, IPTG induction and LB/kanamycin
T1 sequence (Q2FDS6 1-276): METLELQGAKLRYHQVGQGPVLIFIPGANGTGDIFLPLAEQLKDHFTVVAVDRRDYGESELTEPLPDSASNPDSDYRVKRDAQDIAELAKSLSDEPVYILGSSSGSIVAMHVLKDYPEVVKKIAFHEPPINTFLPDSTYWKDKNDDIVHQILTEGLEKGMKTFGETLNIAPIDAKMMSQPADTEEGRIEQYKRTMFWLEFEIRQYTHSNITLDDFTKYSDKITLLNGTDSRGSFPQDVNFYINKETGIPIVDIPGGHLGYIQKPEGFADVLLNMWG
Experimental: (§1) For activity-based protein labeling experiments, 500 nM of rFphB, rFphE and rFphH in 1X PBS and 0.1% Triton–X were preincubated with different concentrations of inhibitors or DMSO for 2hr at room temperature, followed by adding 300 nM of fluorophosphonate (FP) alkyne and incubated for 30 min at room temperature. Next, 20 μL of the reaction volume were mixed with 2.16 μL of freshly prepared click mix (0.5 μL of 50 mM CuSO4 in H2O, 1.16 μL of 100 mM BTTAA in DMSO, and 0.5 μL of N3-Cy5 in DMSO) and 1.16 μL of 300 mM sodium ascorbate solution in H2O. Samples were incubated at 37°C for 30 min, boiled in SDS loading buffer and analyzed by SDS–PAGE. Cy5 fluorescence was imaged using the Cy5 channel on a Typhoon 9410 Imager (Amersham Biosciences).

rFphH = target: T2, rFphH (Staphylococcus aureus, UniProt A0A0H2XJL0); assay: FP-Cy5 active site labeling of recombinant protein, rFphH; format: binding; conditions: recombinant protein
T2 construct: otherwise full-length FphE (Uniprot ID Q2FDS6) and FphH (A0A0H2XJL0) proteins; His6 (3C-cleavable, pETNKI-his-3C-LIC vector) (N); made in house; E. coli is inferred from the pET28a-type vector, IPTG induction and LB/kanamycin
T2 sequence (A0A0H2XJL0 1-246): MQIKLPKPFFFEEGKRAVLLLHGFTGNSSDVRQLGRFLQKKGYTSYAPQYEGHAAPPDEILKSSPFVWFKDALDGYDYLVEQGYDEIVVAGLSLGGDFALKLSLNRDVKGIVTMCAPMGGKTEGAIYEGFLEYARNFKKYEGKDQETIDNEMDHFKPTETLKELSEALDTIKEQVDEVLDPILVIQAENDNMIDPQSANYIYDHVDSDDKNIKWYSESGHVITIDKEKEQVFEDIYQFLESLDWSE
Experimental: as §1

[1] = tested on: Fph enzymes in live S. aureus cells (USA300); assay: Competition of FP-alkyne labeling in live S. aureus cells; format: cell-based, Staphylococcus aureus; conditions: 100 μM compound, live S. aureus cells
Experimental: (§2) One colony of each of S. aureus wild-type and transposon mutants fphB::Tn, fphE::Tn and fphH::Tn picked from growth on a Tryptic soya agar plate were inoculated in 5 mL of Tryptic soya broth (TSB). The overnight bacterial cultures were spun down at 5,000 g for 10 min and pellet was collected. The pellets were washed twice in 1X PBS buffer and resuspended in the same buffer. Cells were first preincubated with the indicated concentrations of inhibitors for 2hr at 37°C. The cells were washed twice with 1X PBS buffer. The resuspended pellets were incubated with Fluorophosphonate-alkyne (FP-alkyne) for 30 min at 37°C. Cells were washed again twice with 1X PBS buffer and resuspended in with 1X PBS and 0.1% Triton–X and lysed by beat beating at 4°C. Next, lysed cells (20 μL) were mixed with 2.16 μL of freshly prepared click mix (0.5 μL of 50 mM CuSO4 in H2O, 1.16 μL of 100 mM BTTAA in DMSO, and 0.5 μL of N3-Cy5 in DMSO) and 1.16 μL of 300 mM sodium ascorbate solution in H2O and incubated at 37 °C for 30 min. Next step, 20 μL of 4X SDS loading buffer was added in each sample and boiled at 100 °C for 10 min. The processed samples were allowed to cool and analyzed by SDS-PAGE (12%) running at 120 V in an electrophoresis chamber. Cy5 fluorescence was imaged using the Cy5 channel on a Typhoon 9410 Imager (Amersham Biosciences).

[2] = target: T3, Fph enzymes in live S. aureus cells (USA300) (Staphylococcus aureus, UniProt Q2FDS6); assay: as above; format: cell-based; conditions: live cells, doses 5–100 μM, 120 min preincubation
T3 construct: endogenous in cells; host or cells: live S. aureus USA300 (LAC) wild-type cells
Experimental: as §2

OB(O)c1csc2ccccc12 [Z27, Benzo[b]thiophen-3-ylboronic acid]
growth defect (in words) (Escherichia coli): no significant growth defect | growth defect (in words) (Pseudomonas aeruginosa): no significant growth defect | concentration inhibiting FP-Cy5 labeling of rFphE (rFphE): > 50 µM | concentration inhibiting FP-Cy5 labeling of rFphH (rFphH): > 50 µM | competition of FP labeling in live cells (in words) [1]: only blocked FP labeling of FphE in live cells | concentration completely inhibiting FphE labeling [2]: ≥ 50 µM
